Experimental data from patent US20090318544A1, “CRYSTALLINE FORM OF (2S)-(-)-N-(6-CHLORO-2,3-DIHYDRO-BENZO[1,4]DIOXIN-2-YLMETHYL)-SULFAMIDE” (priority 2008, published 2009).

Columns and labels:
Format in all cases: physicochemical
[1] = TGA (Thermogravimetric Analysis) weight loss
Experimental: The weight loss for the sample was obtained using a TA Instruments TGA […] thermogravimetric calorimeter. The sample was analyzed as received and was program heated from ambient to 120° C. at 10° C./min under nitrogen purge.

[2] = DVS (Dynamic Vapor Sorption) cycling humidity, hygroscopicity; conditions: full cycle in step mode at 25° C., 0-90% RH in 10% RH increments
Experimental: (§1) A representative sample of crystalline form (IS-VI) was subjected to DVS (Dynamic Vapor Sorption) cycling humidity conditions to determine hydgroscopicity, as shown in FIG. 4. The sample was analyzed using a Surface Measurement System DVS-1 Dynamic Vapor Sorption System. The sample was analyzed full cycle in step mode at 25° C. from 0-90% RH in 10% RH increments. The equilibration conditions set were: dm/dt of 0.0007%/min, dm/dt window of 5 minutes, and minimum and maximum stages of 15 and 360 minutes. Data was collected in 1 minute intervals. Nitrogen was used as the carrier gas. The results from the DVS measurements indicate that crystalline form (IS-VI) is non-hygoscopic

[3] = Stability to temperature and humidity, concluded from DSC, TGA and DVS results; conditions: solid state; conclusion from the results above
Experimental: DSC (Differential Scanning Calorimetry) was measured for a representative sample of crystalline form (IS-VI), as shown in FIG. 2. DSC analysis of the sample was performed using a TA Instruments DSC Q1000 differential scanning calorimeter. The sample was analyzed as received in an open TA Instrument aluminum sample pan and was program heated from ambient to 120° C. at 10° C./min under nitrogen purge.
The weight loss for the sample was obtained using a TA Instruments TGA Q5000IR thermogravimetric calorimeter. The sample was analyzed as received and was program heated from ambient to 120° C. at 10° C./min under nitrogen purge.
as §1

NS(=O)(=O)NC[C@H]1COc2cc(Cl)ccc2O1 [crystalline form (IS-VI), (2S)-(−)-N-(6-chloro-2,3-dihydro-benzo[1,4]dioxin-2-ylmethyl)-sulfamide]
hydrate state indicated by TGA ([1]; ambient to 120° C. at 10° C./min under nitrogen purge): non-hydrate | weight loss by TGA ([1]; heated from ambient to 120° C. at 10° C./min under nitrogen purge, ambient temperature up to and including melting): No weight loss was observed | hygroscopicity by DVS [2]: non-hygoscopic | stability to temperature and humidity [3]: exhibits stability to temperature and humidity
